Reference: patent publication US10640527B2, “Mesitylene-cored amphiphiles and uses thereof” (Industry-University Cooperation Foundation Hanyang …, priority 2016, dated 2020)
“And” between values parts separate entries of the source, which are not always exact repeats. Equal entries are not always repeated.

Assays:
[1] = Hydrodynamic radius / size distribution of micelles by dynamic light scattering (DLS); assay type: physicochemical; settings: 1.0 wt % amphiphile
Experimental: A method of measuring a radius of the micelle is not particularly limited, and those methods widely known in the related field may be used, for example, a dynamic light scattering (DLS) experiment may be used for measurement.
(§1) Specifically, a CMC was measured by a fluorophorescent encapsulation method using diphenylhexatriene (DPH) and an Rh of a micelle formed by each formulation (1.0 wt %) was measured using a dynamic light scattering (DLS) experiment.

[2] = target: T1, melibiose permease (MelBSt) (Salmonella typhimurium, UniProt P30878); assay: MelBSt extraction from membranes and thermal stability, SDS-PAGE and Western blotting; assay type: biochemical; settings: 1.5 wt %, 90 minutes; for MelBSt protein extraction efficiency compared with DDM: 45° C.; for MelBSt extraction ability compared with DDM: 55° C.
T1 construct: made in house; host or cells: DW2 cells (ΔmelB and ΔlacZY), Salmonella typhimurium DW2
Experimental: An experiment for measuring the structural stability of Salmonella typhimurium melibiose permease (MelBSt) according to MGAs in an aqueous solution was performed. After MelBSt proteins were extracted from a membrane using MGAs or DDM, the amount and structure of extracted proteins were analyzed by SDS-PAGE and western blotting. The concentration of used amphiphiles was 1.5 wt %, and proteins were extracted at four different temperatures of 0, 45, 55 and 65° C. to evaluate both the protein extraction efficiency and stabilizing ability of a compound. A membrane sample which had not been treated with MGAs or DDM was used as a control group.
Specifically, MelBSt stability solubilized in DDM or MGAs was evaluated according to a method described in 2010 in a research article (P. S. Chae et al., Nat. Methods 2010, 7, 1003-1008.) by the inventors of the present invention. Proteins (MelBSt) were produced using plasmid pK95ΔAHB/WT MelBSt/CH10 encoding the wild-type MelB with a 6-His tag at the C-terminus and Salmonella typhimurium DW2 cells (ΔmelB and ΔlacZY). Cell growth and membrane preparation was performed according to a method described in a research article (Nat. Commun. 2014, 5, 3009) by A. S. Ethayathulla, et al. A protein assay was carried out using a Micro BCA kit (Thermo Scientific, Rockford, Ill.). In order to measure protein solubilization, a membrane sample (final protein concentration was 10 mg/mL) containing MelBSt was incubated with a solubilization buffer (20 mM sodium phosphate, pH 7.5, 200 mM NaCl, 10% glycerol and 20 mM melibiose) and 1.5% (w/v) DDM or MGA (MGA-C10, MGA-C11, MGA-C12, MGA-C13, MGA-C14 or MGA-C15) at four different temperatures of 0, 45, 55 and 65° C. for 90 minutes. After ultracentrifugation at 355,590 g in a Beckman Optima™ MAX Ultracentrifuge using a TLA-100 rotor for 45 min at 4° C., 20 μg of a protein was separated by SDS-16% PAGE and immunoblotted with a Penta-His-HRP antibody (Qiagen, Germantown, Md.). MelBSt was measured by an ImageQuant LAS 4000 Biomolecular Imager (GE Healthcare Life Sciences) using a SuperSignal West Pico chemiluminescent substrate.

[3] = target: T2, human β2-adrenergic receptor (β2AR) (Homo sapiens, UniProt P07550); assay: Size exclusion chromatography (SEC) of β2AR solubilized in amphiphile; settings: for SEC profile of solubilized β2AR: amphiphile-free running buffer
Experimental: A size exclusion chromatography (SEC) experiment was conducted to determine the β2AR crystallization effect and β2AR stability preservation effect by MGA-C13 or DDM.
Specifically, β2AR purified by 0.1% DDM was mixed with a DDM or MGA-C13 buffer (20 mM HEPES pH 7.5, 100 mM NaCl, 0.2% of each amphiphile) and incubated for 30 minutes. The sample was applied to a Superdex-200 10/300 GL column (GE Healthcare Life Sciences) at a rate of 0.5 ml/min, fluorescence was recorded at 345 nm, and an […] wavelength was 295 nm. A running buffer contained 20 mM HEPES (pH 7.5) and 100 mM NaCl, and contained each amphiphile (DDM or MGA-C13) or not.

[4] = target: T2, human β2-adrenergic receptor (β2AR); assay: β2AR stability, [3H]-dihydroalprenolol radioligand binding; assay type: biochemical; settings: after three days of incubation at room temperature, CMC+0.2 wt %
Experimental: The activity of a receptor (β2AR) purified by DDM or MGAs (MGA-C12, MGA-C13 and MGA-C14) was measured by binding of [^3H]-dihydroalprenolol ([^3H]-DHA).
Specifically, the following method was used in a radioligand binding experiment. β2AR was purified by 0.1% DDM. The DDM-purified β2AR was diluted with a buffer solution containing each amphiphile (DDM or an MGA) such that the final concentration of the amphiphile was CMC+0.2 wt %. β2AR dissolved in each amphiphile was stored at room temperature for three days, and incubated at room temperature for 30 minutes using 10 nM-radioactive [^3H]-dihydroalprenolol (DHA) to measure ligand binding thereof at regular intervals. The mixture was loaded into a G-50 column, and passing liquid was collected using a binding buffer (20 mM HEPES pH 7.5, 100 mM NaCl supplemented with 0.5 mg/ml BSA) and 15 ml of a scintillation fluid was added thereto. Receptor-coupled [^3H]-DHA was measured by a scintillation counter (Beckman). Non-specific binding of [^3H]-DHA was measured by adding 1 μM of alprenolol (Sigma) in the same reaction. Binding of [^3H]-DHA was measured by column graphs.

[5] = tested on: leucine transporter (LeuT); assay: LeuT long-term stability, [3H]-Leu binding by scintillation proximity assay (SPA); assay type: biochemical, Aquifex aeolicus; settings: after 12 days of incubation at room temperature
Experimental: An experiment for measuring the structural stability of LeuT proteins according to MGAs (MGA-C11, MGA-C12, MGA-C13, MGA-C14 and MGA-C15) was performed. Each amphiphile was used at a concentration of (a) CMC+0.04 wt % or (b) CMC+0.2 wt %, a ligand-binding activity of LeuT was measured by scintillation proximity assay (SPA) using [^3H]-Leucine. The measurement was performed at regular intervals at room temperature during 12 days of incubation.
Specifically, a thermophilic bacteria Aquifex aeolicus-derived wild type LeuT was purified using a previously described method (Nature, G. Deckert et al., 1998, 392, 353-358). To sum up, the LeuT was expressed in E. coli C41 (DE3) cultured in a lysogeny broth medium supplemented with 0.1 mg/ml ampicillin. Expression of proteins was induced by adding isopropyl β-D-thiogalactopyranoside to a final concentration of 0.1 mM.
A cell membrane was separated from a crushed cell (Constant Systems Homogenizers, Kennesaw, Ga.), and solubilized in 1% (w/v) n-dodecyl-β-D-maltopyranoside (DDM; Affymetrix, Santa Clara, Calif.). After solubilization, LeuT was fixed in a Ni^2+-NTA resin (Life Technologies, Denmark), and eluted in 20 mM Tris-HCl (pH 7.5), 199 mM KCl, 1 mM NaCl, 0.05% (w/v) DDM and 300 mM imidazole. Thereafter, purified LeuT (about 1.5 mg/ml) was diluted tenfold with a buffer supplemented with MGA (MGA-C11, MGA-C12, MGA-C13, MGA-C14 or MGA-C15) or DDM to the final concentration of CMC+0.04% (w/v) or CMC+0.2% (w/v) while excluding DDM and imidazole from the above-described buffers. Protein samples were stored at room temperature for 12 days, and protein activity was determined by measuring [^3H]-Leu binding by SPA at a specified time. SPA was carried out using 450 mM NaCl and buffers containing each MGA, and a SPA reaction was performed in the presence of 20 nM [^3H]-Leu and 1.25 mg/ml copper chelate (His-Tag) YSi beads (Perkin Elmer, Denmark). [^3H]-Leu binding was measured using a MicroBeta liquid scintillation counter (Perkin Elmer).

[6] = Critical micelle concentration by fluorophore encapsulation using diphenylhexatriene (DPH); assay type: physicochemical; settings: aqueous solution
Experimental: A method of measuring a CMC is not particularly limited, and those methods widely known in the related field may be used. For example, a CMC may be measured by a fluorophore encapsulation method using diphenylhexatriene (DPH).
as §1

[7] = target: T3, uric acid-xanthine/H+ symporter (UapA) (Emericella nidulans, UniProt Q07307, G411V); assay: UapA structural (thermal) stability, CPM assay; assay type: biochemical, Aspergillus nidulans
T3 construct: GFP; made in house; host or cells: Saccharomyces cerevisiae FGY217
Experimental: An experiment for measuring the structural stability of uric acid-xanthine/H^+ symporter (UapA) solubilized in MGAs in an aqueous solution was performed. The structural stability of UapA was measured using a CPM assay, and was measured at MGAs and DDM concentrations of (a) CMC+0.04 wt %, or (b) CMC+0.2 wt %.
Specifically, a UapA protein is a uric acid-xanthine/H^+ symporter in Aspergillus nidulans. Protein stability was measured by fluorescence spectroscopy using N-[4-(7-diethylamino-4-methyl-3-coumarinyl)phenyl]maleimide (CPM) which is a sulfhydryl-specific fluorophore. A free sulfhydryl group of a cysteine residue is in the interior of a protein, but becomes accessible to a solvent upon protein unfolding. CPM becomes fluorescent by a reaction with the free thiol, and thus provides as a protein unfolding sensor. In order to measure thermal stability, first, UapAG411V1-11 was expressed in the Saccharomyces cerevisiae FGY217 strain by fusion with GFP, and separated in a sample buffer (20 mM Tris (pH 7.5), 150 mM NaCl, 0.03% DDM and 1 mM xanthine) according to a method described in a research article (Mol. Membr. Biol. 2013, 30, 32-42) by J. Leung et al. A UapA protein was concentrated to about 10 mg/ml using a 100 kDa molecular weight cut-off filter (Millipore). The concentrated protein was diluted to a ratio of 1:150 with each buffer including DDM or MGA (MGA-C10, MGA-C11, MGA-C12, MGA-C13, MGA-C14 or MGA-C15) at a concentration of CMC+0.04 wt % or CMC+0.2 wt % in a Greiner 96-well plate. A CPM dye (Invitrogen) stored in DMSO (Sigma) was diluted with a dye buffer (20 mM Tris (pH 7.5), 150 mM NaCl, 0.03% DDM and 5 mM EDTA), and 3 μl of the diluted dye was added to each protein sample. The reaction mixture was incubated at 40° C. for 120 minutes. Fluorescence emission was monitored using a microplate spectrofluorometer, with an excitation wavelength at 387 nm and an emission wavelength at 463 nm. Relative maximum fluorescence was used to calculate a percentage of relative folded protein remaining after 120 minutes at 40° C. Relative unfolded proteins were plotted against time using GraphPad Prism.
Specifically, a UapA stabilization effect was evaluated by the same method as in Experimental Example 2 using MGA-C13, MGA-C14, MNG-3 or DDM at a concentration of (a) CMC+0.04 wt % or (b) CMC+0.2 wt %.

Water-solubility = assay type: physicochemical; settings: in water

T1 sequence (P30878 whole entry): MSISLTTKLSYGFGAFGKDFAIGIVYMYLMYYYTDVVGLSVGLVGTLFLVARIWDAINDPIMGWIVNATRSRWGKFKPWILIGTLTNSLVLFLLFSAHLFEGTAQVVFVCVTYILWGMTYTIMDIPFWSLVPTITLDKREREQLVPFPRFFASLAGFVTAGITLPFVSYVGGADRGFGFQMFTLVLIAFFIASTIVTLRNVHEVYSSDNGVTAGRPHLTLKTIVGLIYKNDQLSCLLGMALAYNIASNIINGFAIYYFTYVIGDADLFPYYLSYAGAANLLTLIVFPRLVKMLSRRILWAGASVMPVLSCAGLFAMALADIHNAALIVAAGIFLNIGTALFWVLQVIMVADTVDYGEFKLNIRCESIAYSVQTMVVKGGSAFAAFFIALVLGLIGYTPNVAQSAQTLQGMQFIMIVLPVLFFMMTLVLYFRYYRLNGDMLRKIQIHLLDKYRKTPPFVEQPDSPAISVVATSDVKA
T2 sequence (P07550 whole entry): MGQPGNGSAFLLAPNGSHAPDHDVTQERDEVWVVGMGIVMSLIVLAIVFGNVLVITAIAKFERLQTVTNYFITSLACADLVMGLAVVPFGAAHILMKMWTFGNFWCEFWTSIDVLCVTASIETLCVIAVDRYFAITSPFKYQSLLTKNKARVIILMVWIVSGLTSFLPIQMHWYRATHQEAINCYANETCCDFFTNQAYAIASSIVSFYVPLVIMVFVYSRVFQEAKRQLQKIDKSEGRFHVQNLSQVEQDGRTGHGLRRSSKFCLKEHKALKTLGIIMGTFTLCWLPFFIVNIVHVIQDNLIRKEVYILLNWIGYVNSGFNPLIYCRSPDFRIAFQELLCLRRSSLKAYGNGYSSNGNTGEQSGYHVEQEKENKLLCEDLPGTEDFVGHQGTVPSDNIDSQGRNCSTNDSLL
T3 sequence (Q07307 12-574 G411V): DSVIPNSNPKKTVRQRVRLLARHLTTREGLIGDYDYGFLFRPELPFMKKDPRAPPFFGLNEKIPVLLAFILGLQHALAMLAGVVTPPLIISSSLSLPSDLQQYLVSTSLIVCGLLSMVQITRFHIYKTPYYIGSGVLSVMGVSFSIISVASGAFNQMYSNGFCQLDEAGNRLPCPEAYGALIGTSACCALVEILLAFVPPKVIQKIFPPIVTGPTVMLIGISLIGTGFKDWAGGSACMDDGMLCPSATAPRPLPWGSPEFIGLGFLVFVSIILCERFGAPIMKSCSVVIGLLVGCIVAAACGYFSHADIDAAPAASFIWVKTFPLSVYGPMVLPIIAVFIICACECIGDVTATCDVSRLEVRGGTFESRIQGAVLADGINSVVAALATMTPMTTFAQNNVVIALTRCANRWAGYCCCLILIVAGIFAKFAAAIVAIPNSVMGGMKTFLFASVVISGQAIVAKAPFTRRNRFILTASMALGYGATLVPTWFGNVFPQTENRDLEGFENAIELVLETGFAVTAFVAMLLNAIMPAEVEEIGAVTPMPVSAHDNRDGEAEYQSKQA

| Compound | Rh (nm), hydrodynamic radius of micelle [1] | MelBSt protein extraction efficiency ([2]; 0° C. and 45° C.) | MelBSt protein extracted ([2]; 55° C. or more) | SEC profile of solubilized β2AR [3] | β2AR receptor (ligand binding) activity retained [4] | LeuT ligand-binding activity retained, % of initial activity [5] | CMC [6] | CMC (wt %) [6] | MelBSt protein extraction efficiency compared with DDM [2] | MelBSt extraction ability compared with DDM [2] | UapA stabilization effect compared with MNG-3 ([7]; CMC+0.04 wt % or CMC+0.2 wt %, FIG. 25) | effect in maintaining folded UapA, ranking among MGAs ([7]; CMC+0.2 wt %, 40° C., 120 minutes) | size of protein-detergent complexes (PDCs) with β2AR ([3]; SEC, amphiphile-containing buffer, 0.2% amphiphile) | water-solubility (Water-solubility) |
| --- | --- | --- | --- | --- | --- | --- | --- | --- | --- | --- | --- | --- | --- | --- |
| CCCCCCCCCCCCO[C@@H]1O[C@H](CO)[C@@H](O[C@H]2O[C@H](CO)[C@@H](O)[C@H](O)[C@H]2O)[C@H](O)[C@H]1O [DDM, n-dodecyl-β-D-maltopyranoside, reference compound] | 3.4 nm and 3.4 ± 0.02 nm | high protein extraction efficiency | almost no protein was observed | largely decreased monodispersed peak intensity (˜13 mL) and a new broad aggregate peak (˜10 mL) | ~15% | ~40% | ~170 µM | ~0.0087 wt % |  |  |  |  |  |  |
| CCCCCCCCCCCCCC(CO[C@@H]1OC(CO)[C@@H](O)C(O)C1O)(CO[C@@H]1OC(CO)[C@@H](O)C(O)C1O)Cc1cc(CC(CCCCCCCCCCCCC)(CO[C@@H]2OC(CO)[C@@H](O)C(O)C2O)CO[C@@H]2OC(CO)[C@@H](O)C(O)C2O)cc(CC(CCCCCCCCCCCCC)(CO[C@@H]2OC(CO)[C@@H](O)C(O)C2O)CO[C@@H]2OC(CO)[C@@H](O)C(O)C2O)c1 (some centres unmarked) [MGA-C13] | 3.2 ± 0.03 nm |  |  | almost no change |  |  | ~3 µM | ~0.0006 wt % | same level of protein extraction efficiency as DDM | higher MelBSt extraction ability than DDM | far greater UapA stabilization effect than MNG-3 | had the highest effect | smaller protein-detergent complexes (PDCs) than DDM |  |
| CCCCCCCCCCCCCCCC(CO[C@@H]1OC(CO)[C@@H](O)C(O)C1O)(CO[C@@H]1OC(CO)[C@@H](O)C(O)C1O)Cc1cc(CC(CCCCCCCCCCCCCCC)(CO[C@@H]2OC(CO)[C@@H](O)C(O)C2O)CO[C@@H]2OC(CO)[C@@H](O)C(O)C2O)cc(CC(CCCCCCCCCCCCCCC)(CO[C@@H]2OC(CO)[C@@H](O)C(O)C2O)CO[C@@H]2OC(CO)[C@@H](O)C(O)C2O)c1 (some centres unmarked) [MGA-C15] | 3.6 ± 0.02 nm |  |  |  |  |  | ~1.5 µM | ~0.0003 wt % | same level of protein extraction efficiency as DDM | higher MelBSt extraction ability than DDM |  |  |  | ≥ 20% |
